Where no end group is shown, it is not given here.
Key:
[1] = test system: adhesion factors (Sdf-1a, Kitl, Angpt1, IL7, Vcam1, Spp1) for hematopoietic stem cells; assay: Expression level of adhesion factors for hematopoietic stem cells in bone marrow of normal mice (real-time quantitative PCR); type: in vivo, C57BL/6 mice; details: normal mouse, 50 μg/kg intravenous injection to tail, bone marrow harvested after 60 minutes; p<0.05
Experimental: Osteopep1 used herein was produced by PEPTRON. For in vitro experiment, 0 nM Osteopep1 and 10 nM Osteopep1 were diluted in respective media and then injected. Further, for in vivo experiment, three mice per group, fifteen mice in total, were anesthetized with a mixed solution of 100 mg/kg of ketamine and 10 mg/kg of xylazine. Further, the each mouse was administered with 50 μg/kg of Osteopep1 and 100 μl of PBS (Gibco) by intravenous injection to its tail.
(§1) In order to measure expression levels of adhesion factors (Sdf-1a, Kitl, Angpt1, IL7, Vcam1, Spp1) for hematopoietic stem cells present in osteoblasts, a real-time quantitative PCR was used.
(§2) An RNeasy Plus mini kit (Qiagen, Korea, Ltd.) was used to extract total RNA from a cell eluent and bone marrow cells. A kit produced by Clontech (Mountain View, Calif.) was used to synthesize cDNA from 5 μg of the total RNA. Further, a Corbett research RG-6000 real-time PCR device was used to perform a real-time quantitative PCR repeatedly for 40 cycles under a condition of 95° C. for 10 minutes; 95° C. for 10 seconds; 58° C. for 15 seconds; and 72° C. for 20 seconds per cycle. […]

[2] = test system: bone marrow hematopoietic progenitor cells in blood; assay: Colony-forming unit (CFU) assay: number of bone marrow hematopoietic progenitor cells in blood of normal mice; type: in vivo, C57BL/6 mice; details: normal mouse, 50 μg/kg intravenous injection to tail, blood collected after 60 minutes; p<0.05
Experimental: In order to measure the number of bone marrow hematopoietic progenitor cells in blood of a mouse, CFU assays were conducted. A mouse was anesthetized, and then, 500 μl to 700 μl of blood was collected from the heart into a heparin tube. Then, the collected blood was put into an ammonium chloride solution (Stem Cell Technologies, Inc. 1:10) and then placed in ice for 15 minutes, and red blood cells were removed. The resultant solution was shaken every 2 to 3 minutes to remove red blood cells well, and then, centrifuged for 7 minutes at 1000 rpm. The supernatant was removed, and the resultant solution was washed with IMDM (Gibco) supplied with 2% fetal bovine serum (FBS) (Gibco). The washed cells (3×10^5 per mouse) were divided into three 35 mm dishes (1×10^5 per dish) respectively including methylcellulose-based media (Methocult, Stem cell), and then, cultured for 2 weeks. Then, the number of colonies in the flask was counted. In order to check whether mobilization of bone marrow hematopoietic progenitor cells to blood is induced by a decrease in expression level of the adhesion factors caused by administration of Osteopep1 of the present disclosure, a mouse was administered with 50 μg/kg of Osteopep1 by intravenous injection to its tail, and after 60 minutes, blood was collected from the heart. Then, a CFU (Colony-forming unit) assay was conducted thereto.

[3] = test system: bone marrow hematopoietic stem cells (Lineage, Sca-1, c-kit); assay: Flow cytometry (FACs): number of bone marrow hematopoietic stem cells in bone marrow of normal mice; type: in vivo, C57BL/6 mice; details: 50 μg/kg vs PBS, bone marrow harvested after 60 minutes, p<0.05
Experimental: In order to find out any change in the number of bone marrow hematopoietic stem cells present in bone marrow of mice, Osteopep1 and PBS were injected to normal mice, respectively. After 60 minutes, bone marrow was harvested, and FACs was conducted to the harvested bone marrow by using three kinds of antibodies including Lineage, Sca-1, and c-kit as markers of bone marrow hematopoietic stem cells.
For analyzing bone marrow hematopoietic stem cells, red blood cells were removed from bone marrow, which was harvested from the tibias and the femurs of a 4-week- to 6-week-old C57BL/6 mouse, with an ammonium chloride solution (Stem Cell Technologies, Inc. 1:4) and then, the bone marrow was washed with a PBS (Gibco) solution including 10% fetal bovine serum (FBS) (Gibco) and 1% sodium azide (Sigma-Aldrich) and centrifuged for 10 minutes at 300×g. The hematopoietic cells included in the bone marrow were removed with MACs beads (Miltenyi Biotec) by using a biotinylated lineage antibody (Miltenyi Biotec), and the remaining cells were reacted at 4° C. for 30 minutes by using Sca-1-PECY7, c-kit-APC, CD150-PE, and CD48-FITC antibodies (BD science) and then analyzed with a flow cytometer LSRII (BD science).
Firstly, normal mice were divided into two groups each including 3 mice, and the respective groups were administered with 50 μg/kg of Osteopep1 and 100 μl of PBS (Gibco). […]

[4] = test system: adhesion factors for hematopoietic stem cells present in osteoblasts; assay: Expression level of adhesion factors in osteoblasts differentiated from BM-MSC (real-time quantitative PCR); type: cell-based, C57BL/6 mouse; details: osteoblasts treated with 0 nM and 10 nM for three days, compared with untreated Control; p<0.05
Source text: After a 4-week- to 6-week-old C57BL/6 mouse was anesthetized and sacrificed, the tibias and the femurs were removed. Bone marrow was harvested from the tibias and the femurs, and a single cell suspension was obtained by using a 40 μm cell strainer (Becton-Dickinson LAβware, Franklin Lakes, N.J.). About 10^7 cells were divided in a 75-cm^2 flask including Mesenchymal Stem Cell Stimulatory Supplements (Stem Cell Technologies, Inc.) added with antibiotics and MesenCult™ MSC Basal medium. After being cultured for one week, the cells were cultured for three weeks in StemXVivo Osteogenic/Adipogenic Base Media (R&D systems) added with StemXVivo Osteogenic supplement (20×) and penicillin-streptomycin (100×) for differentiation into osteoblasts. The culture media were replaced every 2 to 3 days.
as §1
as §2, with “A kit produced by Clontech (Mountain View, Calif.) was used to synthesize cDNA from 5 μg of the total RNA.” left out

[5] = test system: adhesion factors (Sdf-1a, Kitl, Angpt1, IL7, Vcam1, Spp1) for hematopoietic stem cells; assay: Expression of adhesion factors for bone marrow hematopoietic stem cells in osteoporosis model (real-time quantitative PCR); type: in vivo, mice; details: osteoporosis (ovariectomy) models, 50 μg/kg intraperitoneally every 12 hours for 3 weeks; p<0.05
Experimental: (§3) After 1 week, 50 μg/kg of Osteopep1 (PEPTRON) and 100 μl of PBS (Gibco) were intraperitoneally administered every 12 hours twice per day for 3 weeks.
as §1
An RNeasy Plus mini kit (Qiagen, Korea, Ltd.) was used to extract total RNA from a cell eluent and bone marrow cells. A kit produced by Clontech (Mountain View, Calif.) was used to synthesize cDNA from 5 μg of the total RNA. Further, a Corbett research RG-6000 real-time PCR device was used to perform a real-time quantitative PCR repeatedly for 40 cycles under a condition of 95° C. for 10 minutes; 95° C. for 10 seconds; 58° C. for 15 seconds; and 72° C. for 20 seconds per cycle.
After 1 week, 50 μg/kg of Osteopep1 (PEPTRON) and 100 μl of PBS (Gibco) were intraperitoneally administered every 12 hours twice per day for 3 weeks. […] On the 22nd day, the femurs was separated from the mouse and refrigerated in 80% ethanol. Then, a bone density and a trabecular thickness were measured by micro CT. […]

[6] = test system: bone marrow hematopoietic progenitor cells in blood; assay: CFU assay: mobilization of bone marrow hematopoietic progenitor cells to blood in osteoporosis model; type: in vivo, mice; details: osteoporosis (ovariectomy) models, 50 μg/kg intraperitoneally every 12 hours for 3 weeks; p<0.05
Experimental: After 1 week, 50 μg/kg of Osteopep1 (PEPTRON) and 100 μl of PBS (Gibco) were intraperitoneally administered every 12 hours twice per day for 3 weeks. […] In order to measure the number of bone marrow hematopoietic progenitor cells in blood of a mouse, CFU assays were conducted. A mouse was anesthetized, and then, 500 μl to 700 μl of blood was collected from the heart into a heparin tube. Then, the collected blood was put into an ammonium chloride solution (Stem Cell Technologies, Inc. 1:10) and then placed in ice for 15 minutes, and red blood cells were removed. The resultant solution was shaken every 2 to 3 minutes to remove red blood cells well, and then, centrifuged for 7 minutes at 1000 rpm. The supernatant was removed, and the resultant solution was washed with IMDM (Gibco) supplied with 2% fetal bovine serum (FBS) (Gibco). The washed cells (3×10^5 per mouse) were divided into three 35 mm dishes (1×10^5 per dish) respectively including methylcellulose-based media (Methocult, Stem cell), and then, cultured for 2 weeks. Then, the number of colonies in the flask was counted. In order to find out effects of administration of Osteopep1 of the present disclosure on bone marrow hematopoietic progenitor cells mobilized to blood in an osteoporosis model, an experiment was conducted in the same manner as the method of Example 1-4.

[7] = test system: bone marrow hematopoietic stem cells; assay: Mobilization of bone marrow hematopoietic stem cells to blood in osteoporosis model, by markers of bone marrow hematopoietic stem cells; type: in vivo, mice; details: osteoporosis (ovariectomy) model, 50 μg/kg intraperitoneally every 12 hours for 3 weeks; p<0.05
Experimental: FIG. 9 is a diagram illustrating a mobilization level of bone marrow hematopoietic stem cells to blood when Osteopep1 is administered to an osteoporosis model, by using a marker of a bone marrow hematopoietic stem cell.
as §3
In order to check whether mobilization of bone marrow hematopoietic progenitor cells to blood in an osteoporosis model is induced by Osteopep1 of the present disclosure, the following experiment was conducted.

bone (femurs) = assay: Micro CT of femurs: bone density and trabecular thickness in osteoporosis (ovariectomy) model and control mice; type: in vivo; details: osteoporosis model mouse, 50 μg/kg intraperitoneally twice per day for 3 weeks, compared with PBS; micro CT on 22nd day
Experimental: After 1 week, 50 μg/kg of Osteopep1 (PEPTRON) and 100 μl of PBS (Gibco) were intraperitoneally administered every 12 hours twice per day for 3 weeks. […] The femurs was separated from the mouse and refrigerated in 80% ethanol. Then, for micro CT scanning, a tissue having a thickness of 40 μm was measured with a micro CT scanner (Inveon preclinical CT, Siemens Healthcare, Hoffman Estates, Ill.) under conditions including an exposure time of 600 msec, photon energy of 70 keV, and a current of 400 μA. In order to measure a bone density (bone volume/total volume) and a trabecular thickness, pieces each having a volume of 2.5×0.5×0 5 mm^3 from the same site of each group were measured with Siemens Inveon Software. […] After 1 week, 50 μg/kg of Osteopep1 (PEPTRON) and 100 μl of PBS (Gibco) were intraperitoneally administered every 12 hours twice per day for 3 weeks. […] On the 22nd day, the femurs was separated from the mouse and refrigerated in 80% ethanol. Then, a bone density and a trabecular thickness were measured by micro CT.

DNPGEDAPAEDMARY [Osteopep1]
expression levels of the main adhesion factors Sdf-1a, Kitl, Angpt1, and Spp1 [1]: decreased | mobilization of bone marrow hematopoietic progenitor cells to blood (CFU assay) [2]: increased | bone marrow hematopoietic stem cells marked by Lineage, Sca-1, and c-kit in bone marrow (FACs) [3]: decreased | expression levels of Sdf-1a, Kitl, and Angpt1 in osteoblasts [4]: concentration-dependently decreased | expression levels of the adhesion factors (Sdf-1a, Kitl, Angpt1, IL7, Vcam1, Spp1) for hematopoietic stem cells [5]: decreased | mobilization of bone marrow hematopoietic progenitor cells to blood (CFU assay) [6]: increased | mobilized amounts of the markers of bone marrow hematopoietic stem cells [7]: increased | bone density percentage (BV/TV, %) (bone (femurs)): increased | trabecular thickness (mm) (bone (femurs)): increased

— patent publication US9650420B2, “Peptides for preventing or treating bone diseases and use thereof” (KYUNGPOOK NATIONAL UNIVERSITY INDUSTRY—ACADEMIC COOPERATION …, priority 2015, dated 2017)
